Laboratory results reported in ChEMBL document CHEMBL3297733, “Discovery and optimization of pyrrolo[1,2-a]pyrazinones leads to novel and selective inhibitors of PIM kinases” (Bioorg Med Chem, 2013).

Assays:
[1] = Cytotoxicity against mouse BA/F3 cells overexpressing PIM1 after 72 hrs by CellTitre-Glo assay; format: functional, cell-based; details: BaF3, 72 h
[2] = target: Serine/threonine-protein kinase pim-1 (Homo sapiens, UniProt P11309); experiment: Inhibition of human PIM1 using ARK-RERTYSFGHHA as substrate incubated for 60 mins prior to substrate addition by topcount scintillation counting analysis in presence of [P33gamma]-ATP
[3] = target: Serine/threonine-protein kinase pim-2 (Homo sapiens, UniProt Q9P1W9); experiment: Inhibition of human PIM2 using ARK-RERTYSFGHHA as substrate incubated for 60 mins prior to substrate addition by topcount scintillation counting analysis in presence of [P33gamma]-ATP
[4] = Apparent permeability from apical to basolateral side in human Caco2 cells after 120 mins by LC-MS/MS analysis; details: Caco-2
[5] = Intrinsic clearance in human liver microsomes after 5 mins by LC-MS/MS analysis; format: ADME; details: read-out: CLH
[6] = target: Glycogen synthase kinase-3 beta (Homo sapiens, UniProt P49841); experiment: Inhibition of GSK3beta (unknown origin)
[7] = target: Cell division cycle 7-related protein kinase (Homo sapiens, UniProt O00311); experiment: Inhibition of CDC7 (unknown origin)
[8] = target: Cyclin-dependent kinase 2 (Homo sapiens, UniProt P24941); experiment: Inhibition of CDK2 (unknown origin)
Casein kinase II = Casein kinase II (Homo sapiens, UniProt P19784+P67870+P68400); experiment: Inhibition of CK2 (unknown origin); format: protein-complex assay
[9] = target: Platelet-derived growth factor receptor (Homo sapiens, UniProt P09619+P16234); experiment: Inhibition of PDGFR (unknown origin); format: protein-complex assay
[10] = Apparent permeability by PAMPA; format: physicochemical
[11] = Thermodynamic aqueous solubility of the compound at pH 7; format: physicochemical; details: buffer

Sequence of Serine/threonine-protein kinase pim-1 (P11309 whole entry): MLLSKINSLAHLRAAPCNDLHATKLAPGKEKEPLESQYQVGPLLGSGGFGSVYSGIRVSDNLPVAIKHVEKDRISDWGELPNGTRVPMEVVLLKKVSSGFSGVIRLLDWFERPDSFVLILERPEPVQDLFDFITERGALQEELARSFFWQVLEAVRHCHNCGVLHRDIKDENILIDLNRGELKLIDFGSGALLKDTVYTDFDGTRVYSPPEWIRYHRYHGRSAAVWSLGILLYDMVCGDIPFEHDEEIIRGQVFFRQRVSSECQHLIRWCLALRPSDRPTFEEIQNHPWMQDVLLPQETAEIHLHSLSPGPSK
Sequence of Serine/threonine-protein kinase pim-2 (Q9P1W9 whole entry): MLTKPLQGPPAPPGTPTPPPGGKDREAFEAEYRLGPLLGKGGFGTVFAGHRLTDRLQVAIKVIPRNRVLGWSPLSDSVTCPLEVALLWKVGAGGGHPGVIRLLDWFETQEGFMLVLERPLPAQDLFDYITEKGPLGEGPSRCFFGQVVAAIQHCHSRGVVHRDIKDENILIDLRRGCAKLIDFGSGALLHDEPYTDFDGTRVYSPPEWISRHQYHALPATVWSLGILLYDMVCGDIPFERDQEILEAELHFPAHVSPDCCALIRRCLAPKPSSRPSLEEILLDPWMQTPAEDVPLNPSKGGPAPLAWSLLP
Sequence of Glycogen synthase kinase-3 beta (P49841 whole entry): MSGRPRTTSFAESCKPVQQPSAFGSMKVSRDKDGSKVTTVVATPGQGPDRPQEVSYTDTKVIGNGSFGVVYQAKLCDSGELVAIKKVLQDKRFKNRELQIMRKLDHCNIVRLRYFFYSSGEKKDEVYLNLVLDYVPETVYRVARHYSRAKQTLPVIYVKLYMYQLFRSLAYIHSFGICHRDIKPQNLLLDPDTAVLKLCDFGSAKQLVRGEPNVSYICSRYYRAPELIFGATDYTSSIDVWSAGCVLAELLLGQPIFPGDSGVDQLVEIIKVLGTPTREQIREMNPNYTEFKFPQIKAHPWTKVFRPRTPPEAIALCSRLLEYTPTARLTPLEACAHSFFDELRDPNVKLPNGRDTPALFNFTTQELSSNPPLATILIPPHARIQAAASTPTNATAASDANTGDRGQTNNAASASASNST
Sequence of Casein kinase II (P67870 whole entry): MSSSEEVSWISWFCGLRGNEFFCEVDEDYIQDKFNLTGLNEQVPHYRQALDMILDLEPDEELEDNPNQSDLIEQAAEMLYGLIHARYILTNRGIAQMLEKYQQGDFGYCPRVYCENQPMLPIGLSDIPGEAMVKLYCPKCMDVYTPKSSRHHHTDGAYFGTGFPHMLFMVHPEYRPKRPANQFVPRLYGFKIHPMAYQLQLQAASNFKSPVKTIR
Sequence of Casein kinase II (P68400 whole entry): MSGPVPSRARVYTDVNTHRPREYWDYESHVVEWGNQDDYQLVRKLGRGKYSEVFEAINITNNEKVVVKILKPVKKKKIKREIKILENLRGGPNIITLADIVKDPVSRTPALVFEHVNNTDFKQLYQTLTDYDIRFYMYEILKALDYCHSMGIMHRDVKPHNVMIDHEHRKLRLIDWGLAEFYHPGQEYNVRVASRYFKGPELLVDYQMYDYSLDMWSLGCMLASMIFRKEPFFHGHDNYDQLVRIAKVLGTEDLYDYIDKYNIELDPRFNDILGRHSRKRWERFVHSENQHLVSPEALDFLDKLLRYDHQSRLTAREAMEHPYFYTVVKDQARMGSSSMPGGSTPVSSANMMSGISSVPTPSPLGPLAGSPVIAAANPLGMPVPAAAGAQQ
Sequence of Casein kinase II (P19784 whole entry): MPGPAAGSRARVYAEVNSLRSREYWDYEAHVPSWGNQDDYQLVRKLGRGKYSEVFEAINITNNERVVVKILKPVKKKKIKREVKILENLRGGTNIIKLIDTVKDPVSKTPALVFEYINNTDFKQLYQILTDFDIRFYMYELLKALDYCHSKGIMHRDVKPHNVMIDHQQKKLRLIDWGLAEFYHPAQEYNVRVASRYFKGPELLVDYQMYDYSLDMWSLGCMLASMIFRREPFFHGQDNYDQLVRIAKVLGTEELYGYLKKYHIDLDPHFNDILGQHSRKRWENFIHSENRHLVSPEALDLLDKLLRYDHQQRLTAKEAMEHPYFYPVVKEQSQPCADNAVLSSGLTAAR
Sequence of Cell division cycle 7-related protein kinase (O00311 whole entry): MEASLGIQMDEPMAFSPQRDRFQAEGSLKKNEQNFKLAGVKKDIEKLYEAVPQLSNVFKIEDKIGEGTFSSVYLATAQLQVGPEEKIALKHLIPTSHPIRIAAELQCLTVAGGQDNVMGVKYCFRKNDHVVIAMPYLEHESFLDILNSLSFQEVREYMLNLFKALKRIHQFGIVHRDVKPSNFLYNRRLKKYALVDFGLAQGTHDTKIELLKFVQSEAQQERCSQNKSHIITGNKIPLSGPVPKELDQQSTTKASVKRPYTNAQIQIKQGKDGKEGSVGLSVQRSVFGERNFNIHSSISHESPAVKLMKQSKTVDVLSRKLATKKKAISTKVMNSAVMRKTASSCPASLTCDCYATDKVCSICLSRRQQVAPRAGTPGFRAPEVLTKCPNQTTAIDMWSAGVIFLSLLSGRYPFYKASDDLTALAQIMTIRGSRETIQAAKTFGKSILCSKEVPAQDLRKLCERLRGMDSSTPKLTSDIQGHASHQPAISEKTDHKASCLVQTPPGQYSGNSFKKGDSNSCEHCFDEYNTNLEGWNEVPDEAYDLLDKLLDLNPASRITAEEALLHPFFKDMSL

SMILES	IC50 [2] [µM]	Papp A→B at 2 h [4] [×10⁻⁶ cm/s]	CLint scaled [5] [mL/min/kg]	IC50 [1] [µM]	also measured
CN1CCN(C[C@@H](NC(=O)C[C@H]2CNC(=O)c3cc(-c4cc(Cl)ccc4F)cn32)C2CCCCC2)CC1	–	–	–	0.147	–
CN1CCN(C[C@@H](NC(=O)C[C@H]2CNC(=O)c3cc(-c4ccc(F)c(F)c4)cn32)C2CCCCC2)CC1	0.026	–	–	0.156	IC50 [3]: 0.25 µM
CN1CCN(C[C@@H](NC(=O)C[C@H]2CNC(=O)c3cc(-c4cccc(Cl)c4)cn32)C(C)(C)C)CC1	0.005	–	–	–	IC50 [3]: 0.262 µM
CN1CCN(C[C@@H](NC(=O)C[C@H]2CNC(=O)c3cc(-c4ccnc(F)c4)cn32)C2CCCCC2)CC1	0.013	0.33	–	2.48	IC50 [3]: 0.095 µM
O=C(CC1CNC(=O)c2cc(-c3ccc(F)c(F)c3)cn21)NCc1ccco1 (racemic)	0.125	–	–	3.64	–
CC(C)(C)CNC(=O)CC1CNC(=O)c2cc(-c3ccncc3)cn21 (racemic)	5.47	–	–	–	IC50 [6]: 4.61 µM
O=C(CC1CNC(=O)c2cc(-c3ccc(F)c(F)c3)cn21)NCC1CCCCC1 (racemic)	0.094	11.8	400	1.27	–
CC(C)(C)CNC(=O)CC1CNC(=O)c2cc(-c3ccc(F)cc3)cn21 (racemic)	2.55	–	–	–	–
O=C(CC1CNC(=O)c2cc(-c3ccccc3F)cn21)NCC1CCCCC1 (racemic)	0.124	11.9	400	1.79	–
C[C@@H](CN1CCN(C)CC1)NC(=O)C[C@H]1CNC(=O)c2cc(-c3cccc(Cl)c3)cn21	0.53	–	–	–	IC50 [3]: > 5 µM
O=C(CC1CNC(=O)c2cc(-c3cn[nH]c3)cn21)NCc1cccc(F)c1 (racemic)	1.1	–	–	–	IC50 [6]: 0.386 µM; IC50 [7]: 0.284 µM; IC50 [8]: 0.06 µM
NC[C@@H](NC(=O)C[C@H]1CNC(=O)c2cc(-c3ccnc(F)c3)cn21)c1ccccc1	–	0.9	6.5	> 10	–
O=C(CC1CNC(=O)c2cc(-c3cc(Cl)ccc3F)cn21)NCc1ccco1 (racemic)	0.132	–	–	–	IC50 [3]: 2.41 µM
CC(C)(C)CNC(=O)CC1CNC(=O)c2cc(-c3ccsc3)cn21 (racemic)	–	–	81	–	IC50 (Casein kinase II): > 10 µM; IC50 [9]: > 10 µM; Papp [10]: 48 ×10⁻⁶ cm/s; Therm_solubility [11]: 68 mg/mL
O=C(CC1CNC(=O)c2cc(-c3cccc(Cl)c3)cn21)NCc1ccco1 (racemic)	–	33.1	97.4	2.43	–
CN1CCN(C[C@@H](NC(=O)C[C@H]2CNC(=O)c3cc(-c4cccc(F)c4)cn32)C2CCCCC2)CC1	0.009	–	6.7	0.49	IC50 [3]: 0.15 µM
CC(C)(C)CNC(=O)CC1CNC(=O)c2cc(-c3cccc(F)c3)cn21 (racemic)	1.94	–	–	–	–

More lines, main results first:

IC50 [2] [µM]	Papp A→B at 2 h [4] [×10⁻⁶ cm/s]	CLint scaled [5] [mL/min/kg]	SMILES	IC50 [1] [µM]	also measured
0.087	2.7	55	O=C(C[C@H]1CNC(=O)c2cc(-c3cccc(F)c3)cn21)N[C@H](CO)c1ccccc1	3.72	–
1.72	–	–	CC(C)(C)CNC(=O)CC1CNC(=O)c2cc(-c3ccccc3F)cn21 (racemic)	–	–
> 5	–	–	Cc1ccc(Cl)cc1-c1cc2n(c1)C(CC(=O)NCc1ccco1)CNC2=O (racemic)	–	IC50 [3]: > 5 µM
0.614	–	–	O=C(CC1CNC(=O)c2cc(-c3cccc(C(F)(F)F)c3)cn21)NCc1cccc(F)c1 (racemic)	–	–
0.375	–	–	O=C(CC1CNC(=O)c2cc(-c3cccc(C(F)(F)F)c3)cn21)NCC1CCCCC1 (racemic)	–	–
> 10	–	–	CC(C)(C)CNC(=O)CC1CNC(=O)c2cc(-c3ccc(OC(F)(F)F)cc3)cn21 (racemic)	–	–
1.27	–	–	CC(C)(C)CNC(=O)CC1CNC(=O)c2cc(-c3cccc(OC(F)(F)F)c3)cn21 (racemic)	–	–
–	11.2	48.5	O=C(CC1CNC(=O)c2cc(-c3cccc(F)c3)cn21)NCC1CCCCC1 (racemic)	1.11	–
0.01	0.6	8.3	NC[C@@H](NC(=O)C[C@H]1CNC(=O)c2cc(-c3cccc(F)c3)cn21)c1ccccc1	> 10	–
–	1.01	5	CN(C)C1CCN(C[C@@H](NC(=O)C[C@H]2CNC(=O)c3cc(-c4cccc(Cl)c4)cn32)C2CCCCC2)CC1	0.48	–
2.54	–	–	CC(C)(C)CNC(=O)CC1CNC(=O)c2cc(-c3ccccc3)cn21 (racemic)	–	–
0.141	1.3	87.8	O=C(C[C@H]1CNC(=O)c2cc(-c3cccc(F)c3)cn21)N[C@H](CO)Cc1ccccc1	3.05	–
0.233	–	–	CN1CCN(C(=O)C[C@H]2CNC(=O)c3cc(-c4cccc(F)c4)cn32)[C@@H](c2ccccc2)C1	–	–
0.016	1.1	14.6	O=C(C[C@H]1CNC(=O)c2cc(-c3cccc(F)c3)cn21)N[C@H](CO)C1CCCCC1	1.53	–
0.838	–	–	O=C(CC1CNC(=O)c2cc(-c3cccc(C(F)(F)F)c3)cn21)NCC1CCOCC1 (racemic)	–	IC50 [3]: 3.13 µM
0.033	0.9	197	O=C(CC1CNC(=O)c2cc(-c3ccnc(Cl)n3)cn21)NCC1CCCCC1 (racemic)	> 5	IC50 [3]: 1.32 µM
0.521	–	–	CC(C)(C)CNC(=O)CC1CNC(=O)c2cc(-c3cccc(C(F)(F)F)c3)cn21 (racemic)	–	–
0.012	0.8	10.1	NC[C@@H](NC(=O)C[C@H]1CNC(=O)c2cc(-c3cccc(F)c3)cn21)C1CCCCC1	> 10	IC50 [3]: 0.275 µM
